Assay results: patent US20260144769A1, “4-PHENYLBUTYRATE RESTORED GABA UPTAKE AND REDUCED SEIZURES IN SLC6A1 VARIANT-MEDIATED DISORDERS” (Vanderbilt University, priority 2022, published 2026)

Legend:
Test in all cases: 3H GABA uptake, HEK293T, mixture of wildtype and mutant cDNAs ("heterozygous")
[1] = target: T1, wildtype GAT-1 + GAT-1(E16X) (Rattus norvegicus, UniProt P23978); assay type: cell-based; conditions: wildtype:E16X cDNAs 1:1; PBA 2 mM, 24 hrs
T1 construct: expressed in transfected cells; host or cells: HEK293T cells
Description: (§1) GABA uptake activity was measured by the high-throughput 3H radio-labeling GABA uptake on a liquid scintillator with QuantaSmart. […] HEK293T cells were transfected with the wildtype or the mutant GAT-1^YFP cDNAs alone for 48 hr. […] HEK293T cells were transfected with the wildtype GAT-1^YFP alone or in mixture of the wildtype or the mutant cDNAs for 48 hr. In the mixed condition, the ratio of the wildtype GAT-1 with pcDNA or the mutant cDNAs are 1:1 with the total cDNA amount of 0.5 μg. […] Both wt and the mutant were normalized to its own DMSO treated conditions. 966 stands for the wildtype treated with CI-966 (50 μM) while 711 stands for NNC-711 (35 μM). (N=4-7 different transfections. In FIG. 4A and FIG. 4B, *P<0.05, **P<0.01, ***p<0.001 vs. wt 0. In FIG. C and FIG. 4D, *P<0.05, **P<0.01, ***p<0.001 vs. its own DMSO treated. In FIG. 4C, ns stands for no significance. One-way analysis of variance (ANOVA) and Newman-Keuls test. Values were expressed as mean±S.E.M.
The plasmid cDNA encoding enhanced yellow fluorescent protein (EYFP)-tagged rat GAT-1 has been previously described. […]
Briefly, cells were cultured in […] dishes for 3 days before the GABA uptake experiment in DMEM with 10% fetal bovine serum and 1% penicillin/streptomycin. […] Glacial acetic acid was added, and lysates were then determined on a liquid scintillator with QuantaSmart. […]

[2] = tested on: wildtype GAT-1 + GAT-1 V125M; assay type: cell-based, rat; conditions: wildtype:V125M cDNAs 1:1; PBA 2 mM, 24 hrs
Description: as §1
(§2) The plasmid cDNA encoding enhanced yellow fluorescent protein (EYFP)-tagged rat GAT-1 has been previously described. The coding region of rGAT-1 was inserted into pEYFP-C1 (Clontech, Palo Alto, CA). QuikChange Site-directed Mutagenesis kit was utilized to introduce the GAT-1 variants into a wildtype GAT-1 plasmid. The product was then amplified via polymerase chain reaction, transformed using DH5a competent cells, and plated. A clone was chosen and grown overnight. All the GAT-1 variants were confirmed by DNA sequencing. Both the wildtype and the variant cDNAs were prepared with Qiagen Maxiprep kit.
(§3) Human embryonic kidney cells were cultured as monolayers in 100 mm^2 dishes. Cells were cultured in Dulbecco's Modified Eagle's Medium supplemented with 10% FBS and 1% penicillin/streptomycin in 37° C. in 5% CO2/95% air. Cells were maintained in culture medium until appropriate confluency for experimentation.
(§4) Briefly, cells were cultured in […] dishes for 3 days before the GABA uptake experiment in DMEM with 10% fetal bovine serum and 1% penicillin/streptomycin. The cells were then transfected with equal amounts of the wildtype or the mutant GAT-1 cDNAs (1 μg) for each condition at 24 hrs or 48 hrs after plating. GABA uptake assay was carried out 48 hrs after transfection. The cells were incubated with preincubation solution for 15 min and then incubated with preincubation solution containing 1 μci/mL 3H GABA and 10 μM unlabeled GABA for 30 min at room temperature. After washing, the cells were lysed with 0.25 N NaOH for 1 hr. Glacial acetic acid was added, and lysates were then determined on a liquid scintillator with QuantaSmart. The flux of GABA (pmol/μg/min) was averaged with at least triplets for each condition at each transfection. The average counting was taken as n=1. The untransfected condition was taken as a baseline that was subtracted from both the wildtype and the mutant conditions. The pmol/μg/min in the mutant was then normalized to the wildtype from each experiment, which was arbitrarily taken as 100%. The protocols for GABA reuptake assay in cultured mouse astrocytes, neuron or iPSC derived cells were modified from the GABA uptake protocol on HEK 293T cells. GAT-1 inhibitors CL-966 and NNC-711 were applied each time to make sure the radioactive counts were specific.
(§5) The working solution was stored at 4° C.

[3] = tested on: wildtype GAT-1 + GAT-1 S295L; assay type: cell-based, rat; conditions: wildtype:S295L cDNAs 1:1; PBA 2 mM, 24 hrs
Description: as §1, §2, §3, §4, §5

[4] = tested on: wildtype GAT-1 + GAT-1 D410E; assay type: cell-based, rat; conditions: wildtype:D410E cDNAs 1:1; PBA 2 mM, 24 hrs
Description: as §1, §2, §3, §4, §5

[5] = tested on: wildtype GAT-1 + GAT-1 W495X; assay type: cell-based, rat; conditions: wildtype:W495X cDNAs 1:1; PBA 2 mM, 24 hrs
Description: as §1, §2, §3, §4, §5

[6] = tested on: wildtype GAT-1 + GAT-1 A288V; assay type: cell-based, rat; conditions: wildtype:A288V cDNAs 1:1; PBA 2 mM, 24 hrs
Description: as §1, §2, §3, §4, §5

[7] = tested on: wildtype GAT-1 + GAT-1 L460R; assay type: cell-based, rat; conditions: wildtype:L460R cDNAs 1:1; PBA 2 mM, 24 hrs
Description: as §1, §2, §3, §4, §5

GABA uptake normalized to its own DMSO treated condition [1]: 1.149±0.025
SMILES: O=C(O)CCCc1ccccc1 [PBA, 4-phenylbutyric acid]
GABA uptake normalized to its own DMSO treated condition [2]: 1.33±0.05
GABA uptake normalized to its own DMSO treated condition [3]: 1.318±0.062
GABA uptake normalized to its own DMSO treated condition [4]: 1.17±0.035
GABA uptake normalized to its own DMSO treated condition [5]: 1.305±0.0296
GABA uptake normalized to its own DMSO treated condition [6]: 1.248±0.053
GABA uptake normalized to its own DMSO treated condition [7]: 1.214±0.037
